Experiments:
platelet aggregation [1] = assay: In vivo activity in dogs: ex vivo platelet aggregation, intravenous infusion; parameters: species or system dog; details: 10 μg/kg/min and 25 μg/kg/min
Experimental: (§1) The following protocols were used to determine in vivo activity in dogs of fibrinogen receptor antagonists of the present invention.
(§2) A mongrel dog of either sex (weighing 7.5 to 11.5 kg) is comfortably positioned in a nylon sling which exposes the legs and keeps the dog stationary. Five ml of blood is withdrawn from either saphenous or cephalic veins with a plastic syringe containing 0.5 ml of 3.8% citrate via a 19-gauge butterfly. An additional I ml of citrated blood is taken to measure whole blood platelet counts. Ex vivo platelet aggregations are done with the agonists ADP (10 μM) and collagen (10 μg/ml) both primed with 1μM epinephrine. Platelet-rich plasma (PRP) is obtained by centrifuging the blood at 150 x g for 5 minutes. Platelet counts are adjusted to 200,000/mm^3 with platelet-poor plasma.
For the intravenous infusion, blood samples for ex vivo platelet aggregation are taken at the following time points: 0,30, 45, 60, 90 and 120 min into the infusion and 2,5, 15, 30, 60, 90, 120, 180, 240, 300, 360, and 420 minutes after the infusion stops. At each time point, the remaining platelet-poor plasma is saved and frozen for drug levels. The drug is infused for 120 minutes at a constant rate of 0.1 ml/min.
(§3) In the oral and intravenous groups, blood collection times are recorded at each time point in order to determine drug plasma levels.

platelet aggregation [2] = assay: In vivo activity in dogs: ex vivo platelet aggregation, oral administration; parameters: species or system dog; details: single oral administration of 2 mg/kg, for a period of eight hours
Experimental: as §1, §2
Oral administration of a drug is done either as a gelatin capsule or a gastric lavage. For the gastric lavage method, 5 ml of the drug solution is administered to the dog through a feeding tube. Blood samples for ex vivo platelet aggregation are taken at the following time points: 0,20, 40, 70, 90, 150, 200, 250, 300, 350, 480 min. 24 hr. 30 hr, and 48 hr. At each time point, the remaining platelet-poor plasma is saved and frozen for drug levels. […]
as §3

Structure (SMILES): O=C(O)CCNC(=O)CN1CCCC(CCC2CCNCC2)C1=O (stereo not drawn)
- Inhibition of platelet aggregation (% of control) during infusion (platelet aggregation [1]; during infusion): nearly complete
- Inhibition of platelet aggregation (% of control) after infusion cessation (platelet aggregation [1]; for several hours after infusion cessation): partial inhibition
- % Inhibition of platelet aggregation (platelet aggregation [2]): greater than 50%

Source: US5281585A, “Fibrinogen receptor antagonists for inhibiting aggregation of blood platelets” (Merck & Co., Inc., priority 1992, dated 1994)
